Experimental data as given in patent US20250179061A1 (SIRONAX LTD., priority 2022, published 2025).
Read-outs that look alike come from different tables or passages of the source.

Tested on: HT-29 cells
Experiment: HT-29 necroptosis cell viability assay (TNF-α/SMAC mimetic/zVAD-FMK, CellTiter-Glo)
Type: cell-based
Settings: Homo sapiens
Method in brief: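 Necroptosis was triggered by TNF-α (10 ng/ml), SMAC mimetic (6 μM) and zVAD-FMK (10 μM) in serum-free medium during 20 h compound exposure (10 concentrations, threefold steps) of HT-29 cells. IC50 from duplicate dose-responses uses CellTiter-Glo ATP luminescence as viability read-out.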

[1] = HT-29, HT-29 necroptosis cell viability assay, class symbols for IC50, read-out: Activity
[2] = HT-29, HT-29 necroptosis cell viability, IC50 class symbols, read-out: Activity
[3] = HT-29, HT-29 cells, necroptosis induced by TNF-α/SMAC mimetic/zVAD-FMK, CellTiter-Glo, read-out: Activity (IC50 class)
[4] = HT-29 cells stimulated with TNF-α (10 ng/ml), SMAC mimetic (6 μM) and zVAD-FMK (10 μM), 20 hours, CellTiter-Glo ATP luminescence, geometric mean IC50 from 10 points, read-out: Activity

| SMILES | IC50 [1] [nM] | IC50 [2] [nM] | further results |
| --- | --- | --- | --- |
| Cc1nc(C#N)cn1Cc1ccc(-n2ncn(Cc3c(F)cccc3F)c2=O)cc1 [Example 186, 1-(4-(4-(2,6-difluorobenzyl)-5-oxo-4,5-dihydro-1H-1,2,4-triazol-1-yl)benzyl)-2-methyl-1H-imidazole-4-carbonitrile] | < 100 | – | – |
| CNC(=O)c1nc(C)c(Oc2ccc(-n3ncn(Cc4ncccc4Cl)c3=O)cc2F)s1 [Example 589, 5-(4-(4-((3-chloropyridin-2-yl)methyl)-5-oxo-4,5-dihydro-1H-1,2,4-triazol-1-yl)-2-fluorophenoxy)-N,4-dimethylthiazole-2-carboxamide] | < 100 | – | – |
| O=c1n(Cc2c(F)cccc2F)cnn1-c1ccc(Oc2ccnc(NC(C3CC3)C(F)(F)F)c2F)cc1 (stereo not shown) [Example 360, 2-(4-((2-((1-cyclopropyl-2,2,2-trifluoroethyl)amino)-3-fluoropyridin-4-yl)oxy)phenyl)-4-(2,6-difluorobenzyl)-2,4-dihydro-3H-1,2,4-triazol-3-one] | – | 1000 to 10000 | – |
| COc1cc(Oc2ccc(-n3ncn(Cc4c(F)cccc4F)c3=O)cc2)ccn1 [Example 661, 4-(2,6-difluorobenzyl)-2-(4-((2-methoxypyridin-4-yl)oxy)phenyl)-2,4-dihydro-3H-1,2,4-triazol-3-one] | – | – | IC50 [3]: 100 to 1000 nM |
| Cc1nc(CN)sc1Oc1ccc(-n2ncn(Cc3c(F)cccc3F)c2=O)cc1F [Example 159, 2-(4-((2-(aminomethyl)-4-methylthiazol-5-yl)oxy)-3-fluorophenyl)-4-(2,6-difluorobenzyl)-2,4-dihydro-3H-1,2,4-triazol-3-one] | < 100 | – | – |
| Cc1nc(CC(C)(C)O)sc1Oc1ccc(-n2ncn(Cc3c(F)cccc3F)c2=O)cc1F [Example 154, 4-(2,6-difluorobenzyl)-2-(3-fluoro-4-((2-(2-hydroxy-2-methylpropyl)-4-methylthiazol-5-yl)oxy)phenyl)-2,4-dihydro-3H-1,2,4-triazol-3-one] | < 100 | – | – |
| Cc1nc(CC(=O)O)sc1Oc1ccc(-n2ncn(Cc3c(F)cccc3F)c2=O)cc1F [Example 637, 2-[5-[4-[4-[(2,6-difluorophenyl)methyl]-5-oxo-1,2,4-triazol-1-yl]-2-fluoro-phenoxy]-4-methyl-thiazol-2-yl]acetic acid] | – | – | IC50 [3]: < 100 nM |
| O=c1n(Cc2c(F)cccc2F)cnn1-c1ccc(Oc2ccnc(N3CCC4(COC4)C3)c2)cc1 [Example 333, 2-(4-((2-(2-oxa-6-azaspiro[3.4]octan-6-yl)pyridin-4-yl)oxy)phenyl)-4-(2,6-difluorobenzyl)-2,4-dihydro-3H-1,2,4-triazol-3-one] | – | < 100 | – |
| Cc1nc(C2CC(C#N)C2)sc1Oc1ccc(-n2ncn(Cc3c(F)cccc3F)c2=O)cc1 (stereo not shown) [Example 39, 3-(5-(4-(4-(2,6-difluorobenzyl)-5-oxo-4,5-dihydro-1H-1,2,4-triazol-1-yl)phenoxy)-4-methylthiazol-2-yl)cyclobutane-1-carbonitrile] | – | – | IC50 [4]: < 100 nM |
| CC(C)Nc1cc(Oc2ccc(-n3ncn(Cc4c(F)cccc4F)c3=O)cc2)ccn1 [Example 345, 4-(2,6-difluorobenzyl)-2-(4-((2-(isopropylamino)pyridin-4-yl)oxy)phenyl)-2,4-dihydro-3H-1,2,4-triazol-3-one] | – | 100 to 1000 | – |
| Cn1c(Oc2ccc(-n3nc(Cl)n(Cc4ccccc4)c3=O)cc2)cccc1=O [Example 429, 6-(4-(4-benzyl-3-chloro-5-oxo-4,5-dihydro-1H-1,2,4-triazol-1-yl)phenoxy)-1-methylpyridin-2(1H)-one] | – | 100 to 1000 | – |
| Cc1nc(C(C)(C)O)sc1Oc1ccc(-n2ncn(Cc3c(F)cccc3C#N)c2=O)cc1F [Example 579, 3-fluoro-2-((1-(3-fluoro-4-((2-(2-hydroxypropan-2-yl)-4-methylthiazol-5-yl)oxy)phenyl)-5-oxo-1,5-dihydro-4H-1,2,4-triazol-4-yl)methyl)benzonitrile] | < 100 | – | – |
| N#Cc1cc(Oc2ccc(-n3ncn(Cc4c(F)cccc4F)c3=O)cc2F)c(Cl)cn1 [Example 406, 5-chloro-4-(4-(4-(2,6-difluorobenzyl)-5-oxo-4,5-dihydro-1H-1,2,4-triazol-1-yl)-2-fluorophenoxy)picolinonitrile] | – | < 100 | – |
| O=c1n(Cc2c(F)cccc2F)cnn1-c1ccc(Oc2c(N3CC4(CCOCC4)C3)ccnc2Cl)cc1 [Example 307, 2-(4-((2-chloro-4-(7-oxa-2-azaspiro[3.5]nonan-2-yl)pyridin-3-yl)oxy)phenyl)-4-(2,6-difluorobenzyl)-2,4-dihydro-3H-1,2,4-triazol-3-one] | – | 100 to 1000 | – |
| Cc1nc(C2CC(C)(O)C2)sc1Oc1ccc(-n2ncn(Cc3c(F)cccc3F)c2=O)cc1F (stereo not shown) [Example 119, 4-(2,6-difluorobenzyl)-2-(3-fluoro-4-((2-(3-hydroxy-3-methylcyclobutyl)-4-methylthiazol-5-yl)oxy)phenyl)-2,4-dihydro-3H-1,2,4-triazol-3-one] | – | – | IC50 [4]: < 100 nM |
| O=c1n(-c2ccc(Oc3ccccc3[N+](=O)[O-])cc2)nc(Cl)n1Cc1ccccc1 [Example 430, 4-benzyl-5-chloro-2-(4-(2-nitrophenoxy)phenyl)-2,4-dihydro-3H-1,2,4-triazol-3-one] | – | 100 to 1000 | – |

| SMILES | IC50 [1] [nM] | IC50 [2] [nM] | further results |
| --- | --- | --- | --- |
| Cc1nc(C(N)C(F)(F)F)sc1Oc1ccc(-n2ncn(Cc3c(F)cccc3F)c2=O)cc1F (stereo not shown) [Example 651, 2-(4-((2-(1-amino-2,2,2-trifluoroethyl)-4-methylthiazol-5-yl)oxy)-3-fluorophenyl)-4-(2,6-difluorobenzyl)-2,4-dihydro-3H-1,2,4-triazol-3-one] | – | – | IC50 [3]: 100 to 1000 nM |
| Cc1nc(C(N)=O)sc1Oc1ccc(-n2nc3n(c2=O)[C@H](c2ccccc2)CC3)cc1F (single isomer, unassigned) [Example 14] | – | – | IC50 [4]: < 100 nM |
| N#Cc1ccn(Cc2ccc(-n3ncn(Cc4c(F)cccc4F)c3=O)cc2)n1 [Example 209, 1-(4-(4-(2,6-difluorobenzyl)-5-oxo-4,5-dihydro-1H-1,2,4-triazol-1-yl)benzyl)-1H-pyrazole-3-carbonitrile] | < 100 | – | – |
| Cc1cc(C)n(Cc2ccc(-n3ncn(Cc4c(F)cccc4F)c3=O)cc2)c1 [Example 188, 4-(2,6-difluorobenzyl)-2-(4-((2,4-dimethyl-1H-pyrrol-1-yl)methyl)phenyl)-2,4-dihydro-3H-1,2,4-triazol-3-one] | 100 to 1000 | – | – |
| Cc1nc(C(=O)N2CC(C)(O)C2)sc1Oc1ccc(-n2ncn(Cc3ncccc3F)c2=O)cc1F [Example 608, 2-(3-fluoro-4-((2-(3-hydroxy-3-methylazetidine-1-carbonyl)-4-methylthiazol-5-yl)oxy)phenyl)-4-((3-fluoropyridin-2-yl)methyl)-2,4-dihydro-3H-1,2,4-triazol-3-one] | < 100 | – | – |
| C[C@H]1C[C@@H](C#N)CN1c1cc(Oc2ccc(-n3ncn(Cc4c(F)cccc4F)c3=O)cc2F)c(Cl)cn1 [Example 240, (3R,5S)-1-(5-chloro-4-(4-(4-(2,6-difluorobenzyl)-5-oxo-4,5-dihydro-1H-1,2,4-triazol-1-yl)-2-fluorophenoxy)pyridin-2-yl)-5-methylpyrrolidine-3-carbonitrile] | – | < 100 | – |
| Cc1cnc(N2CCC(C)(C#N)C2)cc1Oc1ccc(-n2ncn(Cc3c(F)cccc3F)c2=O)cc1Cl (stereo not shown) [Example 397, 1-(4-(2-chloro-4-(4-(2,6-difluorobenzyl)-5-oxo-4,5-dihydro-1H-1,2,4-triazol-1-yl)phenoxy)-5-methylpyridin-2-yl)-3-methylpyrrolidine-3-carbonitrile] | – | < 100 | – |
| CCC(O)(CC)c1nc(C)c(Oc2ccc(-n3ncn(Cc4c(F)cccc4F)c3=O)cc2)s1 [Example 577, 4-(2,6-difluorobenzyl)-2-(4-((2-(3-hydroxypentan-3-yl)-4-methylthiazol-5-yl)oxy)phenyl)-2,4-dihydro-3H-1,2,4-triazol-3-one] | < 100 | – | – |
| NC1(CO)CN(c2cc(Oc3ccc(-n4ncn(Cc5c(F)cccc5F)c4=O)cc3F)c(F)cn2)C1 [Example 378, 2-(4-((2-(3-amino-3-(hydroxymethyl)azetidin-1-yl)-5-fluoropyridin-4-yl)oxy)-3-fluorophenyl)-4-(2,6-difluorobenzyl)-2,4-dihydro-3H-1,2,4-triazol-3-one] | – | 100 to 1000 | – |
| Cc1nc(C(N)=O)cn1Cc1ccc(-n2ncn(Cc3c(F)cccc3F)c2=O)cc1F [Example 103, 1-(4-(4-(2,6-difluorobenzyl)-5-oxo-4,5-dihydro-1H-1,2,4-triazol-1-yl)-2-fluorobenzyl)-2-methyl-1H-imidazole-4-carboxamide] | – | – | IC50 [4]: 100 to 1000 nM |
| COC(=O)c1nc(C)c(Oc2ccc(-n3nc4n(c3=O)[C@@H](c3ccccc3)CC4)cc2F)s1 (single isomer, unassigned) [Example 35] | – | – | IC50 [4]: 1000 to 10000 nM |
| O=c1n(Cc2c(F)cccc2F)cnn1-c1ccc(Oc2ccnc(N3CC4(CCOCC4)C3)c2F)cc1 [Example 672, 4-(2,6-difluorobenzyl)-2-(4-((3-fluoro-2-(7-oxa-2-azaspiro[3.5]nonan-2-yl)pyridin-4-yl)oxy)phenyl)-2,4-dihydro-3H-1,2,4-triazol-3-one] | – | – | IC50 [3]: < 100 nM |
| Cc1nccn1Cc1ccc(-n2ncn(Cc3c(F)cccc3F)c2=O)cc1 [Example 187, 4-(2,6-difluorobenzyl)-2-(4-((2-methyl-1H-imidazol-1-yl)methyl)phenyl)-2,4-dihydro-3H-1,2,4-triazol-3-one] | 100 to 1000 | – | – |
| CCCOC1CN(c2cc(Oc3ccc(-n4ncn(Cc5c(F)cccc5F)c4=O)cc3)ccn2)C1 [Example 243, 4-(2,6-difluorobenzyl)-2-(4-((2-(3-propoxyazetidin-1-yl)pyridin-4-yl)oxy)phenyl)-2,4-dihydro-3H-1,2,4-triazol-3-one] | – | < 100 | – |
| Cc1nc(C(N)=O)sc1Oc1ccc(-n2nc3n(c2=O)[C@@H](c2ccc(F)cc2)CC3)cc1F (single isomer, unassigned) [Example 669] | – | – | IC50 [3]: 1000 to 10000 nM |
